51 compounds from PubChem BioAssay AID1996 can be followed below.

≈ marks a conversion by molar mass, not a printed value. Bounds are passed on as bounds.

Usually kinetic solubility stands for solubility judged after dilution from a stock solution rather than from solid.

For the data set the following is noted: buffer; pH 7.4; 200.0 µM.
As for `CCc1ccc(NC2=CC(=O)C(=O)c3ccccc32)cc1`, the solubility (kinetic) was found to be 2.4 µg/mL (≈ 8.65 µM). Under `COC(=O)c1ccc(NC(=S)N2CCN(CCO)CC2)cc1` stands above 48.5 µg/mL.

With `CN1CCN(S(=O)(=O)c2ccc(Cl)cc2)CC1`, the kinetic solubility worked out at 37.8 µg/mL (≈ 138 µM).

On to `CSc1ccccc1C(=O)C1CCCN(Cc2ccncc2)C1` (stereo unspecified), for which the solubility (kinetic) is 41.4 µg/mL (≈ 127 µM). This solubility kinetic and that of the compound before are within 1.5-fold of each other. Under `COc1ccc(-c2cc(C3CC3)nc(N)c2C#N)cc1` stands 1.7 µg/mL (≈ 6.41 µM).

Regarding `Cc1ccc(/C(O)=C2\C(=O)C(=O)N(CC(C)O)C2c2ccccn2)cc1` (stereo unspecified), the kinetic solubility was above 52.9 µg/mL. Under `O=C(/C=C/c1ccccc1[N+](=O)[O-])OCC(=O)N1CCCC1` stands above 45.6 µg/mL; under `CCCCCCNC(=O)Cc1ccc(Br)cc1`, 5 µg/mL (≈ 16.8 µM); under `CC(=O)c1ccc(N=C2C(=O)Nc3ccccc32)cc1`, 36.6 µg/mL (≈ 138 µM). As for `O=C(COC(=O)Cc1ccc(Br)cc1)NCC1CCCO1` (stereo unspecified), the figure is above 53.4 µg/mL; as for `COc1ccc(S(=O)(=O)Nc2cccc(F)c2)cc1C`, above 44.3 µg/mL; as for `CC1CCCC(C)N1C(=O)COC(=O)CNC(=O)c1ccccc1` (stereo unspecified), above 49.9 µg/mL. For the compound `Cc1ccc(S(=O)(=O)NCCCN2CCCC2)cc1`, the solubility (kinetic) was above 42.4 µg/mL.

As to `Cc1ccc(-c2cc(C(=O)NC3CCCC3)no2)cc1`, the kinetic solubility came out at 0.5 µg/mL (≈ 1.85 µM). Under `c1ccc2nc(SCc3cn4ccccc4n3)cnc2c1` stands above 43.9 µg/mL; under `CC(C)CC(=O)Nc1cc2c3c(c1)C(C)C(=O)N3CCC2` (stereo unspecified), above 43 µg/mL. Turning to `CC1=C(C(=O)OC(C)C)C(c2ccc(C)o2)C(C(=O)OC(C)C)=C(C)N1`, the solubility (kinetic) was 11.8 µg/mL (≈ 32.6 µM).

As for `O=C(Nc1cc(Cl)cc(Cl)c1)c1coc(=O)c(Br)c1`, the kinetic solubility was found to be 5.1 µg/mL (≈ 14 µM). Take `Nc1ncnc2nc(SCCC(=O)O)[nH]c12`: the solubility (kinetic) is above 35.9 µg/mL. For the compound `Cc1cc(C)c2nc(C)cc(Nc3ccc(C(=O)N(C)C)cc3)c2c1`, the solubility (kinetic) worked out at 5.6 µg/mL (≈ 16.8 µM). As to `Cc1ccnc(N2CCC(C(=O)NNC(=O)c3ccncc3)CC2)n1`, the solubility (kinetic) is above 51.1 µg/mL. As for `COC(=O)Cn1ccc(-c2ccc(Cl)cc2)c(C#N)c1=O`, the figure is above 45.4 µg/mL.

The compound `Cl.NCCN1C(=O)S/C(=C\c2ccc3c(c2)OCO3)C1=O` displayed a solubility (kinetic) above 49.3 µg/mL. As for `CC(=O)c1ccc(N(CC(=O)Nc2cc(C)on2)S(=O)(=O)c2ccc(C)cc2)cc1`, the figure is 6.2 µg/mL (≈ 14.5 µM). Turning to `CC(C)c1nc(Cl)c(C#N)c2c1CCC2`, the solubility (kinetic) is 4.3 µg/mL (≈ 19.5 µM). On to `CCc1cccc(C)c1NC(=O)CC(C)(C)CC(=O)O`, for which the solubility (kinetic) was above 41.6 µg/mL. With `O=[N+]([O-])c1ccc(N2CCOCC2)c2cccnc12`, the kinetic solubility was above 38.9 µg/mL. Compound `O=C(c1ccccc1)c1ccc(OCC(O)CN2CCCC2)cc1` (stereo unspecified) had a solubility (kinetic) above 48.8 µg/mL. As for `Cc1ccc(NC(=O)CSc2nc(C)c(C)c(C)n2)cc1S(=O)(=O)N1CCOCC1`, the figure is 4.2 µg/mL (≈ 9.32 µM). Under `CC(=O)Nc1ccc(C(=O)OCC(=O)N(c2ccccc2)C2CCCCC2)cc1` stands 3.8 µg/mL (≈ 9.63 µM).

In turn, `COc1ccccc1CCNC(=O)c1csc2c1CCCC2` showed a kinetic solubility of 1 µg/mL (≈ 3.17 µM).

As for `CCS(=O)(=O)N1CCN(c2ccnc3cc(Cl)ccc23)CC1`, the kinetic solubility is above 51 µg/mL. As for `Cc1ccc(NC(=S)Nc2ccc3[nH]c(=O)[nH]c3c2)cc1`, the figure is 44 µg/mL (≈ 147 µM); as for `c1ccc(CCc2ccncc2)cc1`, 13 µg/mL (≈ 70.9 µM). On to `CC1(C)CC(NC(=O)N2c3ccccc3Sc3ccccc32)CC(C)(C)N1`, for which the solubility (kinetic) was determined as 43.1 µg/mL (≈ 113 µM). This solubility kinetic lies about 3.3-fold higher than the previous one.

As to `COCCn1c(C)c(C)c2c(NCCc3ccccc3)ncnc21`, the kinetic solubility came to 34.8 µg/mL (≈ 107 µM). Compound `NC(=O)c1ccc(NC(=O)COC(=O)/C=C/c2ccc(Br)o2)cc1` yielded a kinetic solubility of 7.3 µg/mL (≈ 18.6 µM).

The compound `O=C(CN1C(=O)NC2(CCc3ccccc32)C1=O)c1ccccc1` (stereo unspecified) returned a kinetic solubility of 40.1 µg/mL (≈ 125 µM). This solubility kinetic lies about 5.5-fold higher than the previous one. As for `Cc1cccc(OCCc2c(C)[nH]c(=S)[nH]c2=O)c1`, the figure is 3.2 µg/mL (≈ 11.6 µM). As to `CCN(CC)CCC(C)OC(=O)c1ccc(O)cc1O.Cl` (stereo unspecified), the kinetic solubility is above 47.7 µg/mL. As for `O=c1nc(SCc2ccc(Cl)cc2)nc(-c2ccccc2)[nH]1`, the figure is 4.5 µg/mL (≈ 13.6 µM); as for `C=Cn1cc[n+](CC(=O)c2ccc(OC)c(OC)c2)c1.[Br-]`, above 53 µg/mL. As for `O=[N+]([O-])c1ccc(NCCCO)c(S(=O)(=O)N2CCOCC2)c1`, the figure is 48.8 µg/mL (≈ 141 µM); as for `CC(C)[C@H](NC(=O)NC1CCN(Cc2ccccc2)CC1)C(=O)O`, 19.8 µg/mL (≈ 59.4 µM); as for `COc1ccc(/C=C/C(=O)NC(CCSC)C(=O)O)cc1` (stereo unspecified), above 46.4 µg/mL. As for `COc1ccc(C(=O)Nc2cc(OC)c(Cl)cc2OC)cc1`, the figure is below 0.7 µg/mL; as for `N#Cc1c(-c2ccccc2)nc(N2CCN(Cc3ccccc3)CC2)[nH]c1=O`, above 55.7 µg/mL. The compound `COc1ccc(OC)c([C@@H](O)[C@H](C)NC(C)(C)C)c1.Cl` registered a kinetic solubility above 45.6 µg/mL. `CCOC(=O)CNC(=O)c1cccnc1Oc1ccc(Cl)cc1` gave a kinetic solubility of 20.2 µg/mL (≈ 60.3 µM). Consider `O=C(CSc1ccc(-c2ccncc2)nn1)N1CCCC1`, for which the solubility (kinetic) was above 45.1 µg/mL. With `C=CCn1c(-c2ccc(Cl)cc2)cnc1SC(C)C(=O)NC(N)=O` (stereo unspecified), the solubility (kinetic) came out at 14.2 µg/mL (≈ 38.9 µM).
